These results are taken from patent US10570117B2, “Phenylimidazole compound” (Otsuka Pharmaceutical Factory, Inc., priority 2015, dated 2020).

Series [1] can be described thus: Solubility in gastric juice or intestinal juice model fluid (precipitation method using DMSO). In kind it is physicochemical. To be noted: room temperature. As to the method: Solubility in Gastric Juice or Intestinal Juice Model Fluid
Measurement was performed by a precipitation method using DMSO. Specifically, each of the dimethyl sulfoxide (DMSO) solutions of the compounds was individually added to 1st fluid for Disintegration Test of Japanese Pharmacopoeia (pH: 1.2) or 2nd fluid for Disintegration Test of Japanese Pharmacopoeia (pH: 6.8), and the mixtures were stirred by shaking at room temperature for 24 hours. Subsequently, insoluble substances in each mixture were removed by filtration, and the UV absorption of each filtrate was measured. The obtained values were individually applied to the calibration curves of the compounds prepared in advance to calculate the concentrations of the compounds dissolved (μg/mL).

Setting [2] is: pH 1.2, simulated gastric fluid, kinetic from dmso stock, 1st fluid for Disintegration Test of Japanese Pharmacopoeia (pH: 1.2), read-out: Solubility (μg/mL) 1st fluid.
[3] abbreviates: pH 6.8, kinetic from dmso stock, 2nd fluid for Disintegration Test of Japanese Pharmacopoeia (pH: 6.8), read-out: Solubility (μg/mL) 2nd fluid.

By melting point is commonly meant the temperature of the solid-liquid transition.

In brackets after ≈: the same amount, converted by molar mass. Read-outs that look alike come from different tables or passages of the source. Where only a bound is given, the exact number is not on record here.

`COc1cc(OCc2ccc(C(F)(F)F)nc2)ccc1-c1cnc(C2CC(F)(F)C2)[nH]1` [Example 4] gave a melting point of 167 to 169 °C. For the same compound, in series [1] (setting [2]), the solubility at 24 h was 86.6 µg/mL (≈ 197 µM). Further, the solubility at 24 h in series [1] (setting [3]) is 0.9 µg/mL (≈ 2.05 µM).
The like results for `COc1cc(OCc2ncccc2C#N)ccc1-c1cnc(C2CCC(F)(F)CC2)[nH]1` [Example 7] were, in that order, 69 to 89 °C, 84 µg/mL (≈ 198 µM) and 40.2 µg/mL (≈ 94.7 µM).
The like results for `COc1cc(OCc2cccc(C#N)n2)ccc1-c1cnc(C2CCC(F)(F)CC2)[nH]1` [Example 8] were, in that order, 195 to 197 °C, 83.6 µg/mL (≈ 197 µM) and under 0.3 µg/mL.
Turning to `COc1cc(OCc2ccc(C(F)(F)F)nc2)ccc1-c1c[nH]c(-c2ccc(F)cn2)n1` [Example 26], the melting point was in the range of 176 to 178 °C. Also, the solubility at 24 h in series [1] (setting [2]) is 8.7 µg/mL (≈ 19.6 µM). Moreover, in series [1] (setting [3]), the solubility at 24 h was 1.3 µg/mL (≈ 2.93 µM).
The compound `COc1cc(-c2nc(-c3ccc(Cl)cn3)[nH]c2C)ccc1OCc1ccc(C(F)(F)F)nc1` [Example 29] had a melting point of 267 to 269 °C. Moreover, the solubility at 24 h in series [1] (setting [2]) was 3 µg/mL (≈ 6.32 µM). In addition, in series [1] (setting [3]), the solubility at 24 h came out at 0.6 µg/mL (≈ 1.26 µM).
The like results for `COc1cc(-c2nc(-c3ccc(Cl)nc3)[nH]c2C)ccc1OCc1ccc(C(F)(F)F)cn1` [Example 30] were, in that order, 228 to 230 °C (dec.), 24 µg/mL (≈ 50.5 µM) and 0.6 µg/mL (≈ 1.26 µM).
The like results for `COc1cc(-c2nc(-c3ccc(Cl)cn3)[nH]c2C)ccc1OCc1ccc(C(F)(F)F)cn1` [Example 31] were, in that order, 168 to 171 °C, 7.7 µg/mL (≈ 16.2 µM) and 1.6 µg/mL (≈ 3.37 µM).
The like results for `COc1cc(OCc2cc(C(F)(F)F)ccn2)ccc1-c1c[nH]c(-c2ccc(Cl)nc2)n1` [Example 37] were, in that order, 216 to 217 °C, 5.6 µg/mL (≈ 12.2 µM) and 0.6 µg/mL (≈ 1.3 µM).
On to `COc1cc(OCc2ccc(C(F)(F)F)cn2)ccc1-c1c[nH]c(-c2ccc(F)cn2)n1` [Example 41], for which the melting point was 152 to 154 °C. In series [1] (setting [2]), the solubility at 24 h was 23.3 µg/mL (≈ 52.4 µM). In series [1] (setting [3]), the solubility at 24 h is 1.3 µg/mL (≈ 2.93 µM).
On the same counts, the results for `COc1cc(OCc2ccc(C(F)(F)F)nc2)ccc1-c1c[nH]c(C2CCCCC2)n1` [Example 53] are 62 to 73 °C, over 86 µg/mL and 4.6 µg/mL (≈ 10.7 µM).
The like results for `COc1cc(OCc2ccc(C(F)(F)F)cn2)ccc1-c1c[nH]c(-c2ccc(N3CCCC3)nc2)n1` [Example 58] were, in that order, 227 to 231 °C (dec.), 94.4 µg/mL (≈ 191 µM) and 16.5 µg/mL (≈ 33.3 µM).
Consider `COc1cc(OCc2cccc(C#N)n2)ccc1-c1c[nH]c(-c2ccc(Cl)nc2)n1` [Example 60], for which the melting point is 235 to 239 °C (dec.). In series [1] (setting [2]), the solubility at 24 h is 8.8 µg/mL (≈ 21.1 µM). For the same compound, the solubility at 24 h in series [1] (setting [3]) turned out to be 1.1 µg/mL (≈ 2.63 µM).
The like results for `COc1cc(OCc2ccc(C(F)(F)F)cn2)ccc1-c1c[nH]c(C2CCC(F)(F)CC2)n1` [Example 61] were, in that order, 232 to 237 °C, over 101 µg/mL and 1.6 µg/mL (≈ 3.42 µM).
The like results for `COc1cc(-c2c[nH]c(C3CCC(F)(F)CC3)n2)ccc1OCc1ccc(C(F)(F)F)cn1` [Example 62] were, in that order, over 250 °C, over 101 µg/mL and 1.3 µg/mL (≈ 2.78 µM).
The like results for `COc1cc(-c2c[nH]c(C3CCC(F)(F)CC3)n2)cc(OC)c1OCc1ccc(C(F)(F)F)cn1` [Example 63] were, in that order, 155 to 168 °C (dec.), 82.2 µg/mL (≈ 165 µM) and 12.5 µg/mL (≈ 25.1 µM).
Regarding `COc1cc(-c2c[nH]c(C3CCC(C)CC3)n2)ccc1OCc1ccc(C(F)(F)F)cn1` (stereo not drawn) [Example 64], the melting point fell in the range of 147 to 150 °C. In series [1] (setting [2]), the solubility at 24 h is 56.2 µg/mL (≈ 126 µM). Moreover, the solubility at 24 h in series [1] (setting [3]) came out at 2.6 µg/mL (≈ 5.84 µM).
In turn, `COc1cc(-c2c[nH]c(C34CC5CC(CC(C5)C3)C4)n2)cc(OC)c1OCc1ccc(C(F)(F)F)cn1` [Example 66] showed a melting point of 144 to 168 °C. Moreover, in series [1] (setting [2]), the solubility at 24 h was 56.9 µg/mL (≈ 111 µM). Besides, the solubility at 24 h in series [1] (setting [3]) was found to be 0.9 µg/mL (≈ 1.75 µM).
On the same counts, the results for `COc1cc(-c2c[nH]c(C34CC5CC(CC(C5)C3)C4)n2)ccc1OCc1ccc(C(F)(F)F)cn1` [Example 67] are 209 to 217 °C, 93.5 µg/mL (≈ 193 µM) and 0.4 µg/mL (≈ 0.827 µM).
As for `COc1cc(-c2c[nH]c(C3CCC(C(C)(C)C)CC3)n2)ccc1OCc1ccc(C(F)(F)F)cn1` (stereo not drawn) [Example 69], the melting point is 159 to 161 °C. In addition, in series [1] (setting [2]), the solubility at 24 h was 5.3 µg/mL (≈ 10.9 µM). Moreover, the solubility at 24 h in series [1] (setting [3]) was found to be 1.3 µg/mL (≈ 2.67 µM).
On the same counts, the results for `COc1cc(-c2c[nH]c(C3CCCCCC3)n2)cc(OC)c1OCc1ccc(C(F)(F)F)cn1` [Example 74] are 177 to 179 °C, 53.6 µg/mL (≈ 113 µM) and 1.8 µg/mL (≈ 3.79 µM).
On the same counts, the results for `COc1cc(OCc2ccc(C(F)(F)F)cn2)ccc1-c1c[nH]c(C2CCCCCC2)n1` [Example 75] are 202 to 204 °C (dec.), 83.1 µg/mL (≈ 187 µM) and 1 µg/mL (≈ 2.24 µM).
On the same counts, the results for `COc1cc(-c2c[nH]c(C3CCCCC3)n2)cc(OC)c1OCc1ccc(C(F)(F)F)cn1` [Example 76] are 183 to 186 °C, under 8.5 µg/mL and 1 µg/mL (≈ 2.17 µM).
The compound `COc1cc(-c2c[nH]c(C3CCCC3)n2)ccc1OCc1ccc(C(F)(F)F)cn1` [Example 78] gave a melting point of 207 to 210 °C. Also, in series [1] (setting [2]), the solubility at 24 h is over 83 µg/mL. Besides, in series [1] (setting [3]), the solubility at 24 h came to 20.6 µg/mL (≈ 49.3 µM).
As for `COc1cc(-c2c[nH]c(C3CCCCC3)n2)ccc1OCc1ccc(C(F)(F)F)cn1` [Example 81], the melting point fell in the range of 135 to 145 °C. Besides, the solubility at 24 h in series [1] (setting [2]) is 78.7 µg/mL (≈ 182 µM). In addition, the solubility at 24 h in series [1] (setting [3]) worked out at 5.8 µg/mL (≈ 13.4 µM).
On the same counts, the results for `COc1cc(-c2c[nH]c(C3CC3)n2)ccc1OCc1ccc(C(F)(F)F)cn1` [Example 82] are 153 to 155 °C, over 78 µg/mL and 41.1 µg/mL (≈ 106 µM).
The like results for `COc1cc(OCc2ccc(Br)cc2F)ccc1-c1c[nH]c(C2CC2)n1` [Example 83] were, in that order, 157 to 160 °C, 27.8 µg/mL (≈ 66.6 µM) and 2.9 µg/mL (≈ 6.95 µM).
On the same counts, the results for `COc1cc(-c2c[nH]c(-c3ccc(C)nc3)n2)ccc1OCc1ccc(C(F)(F)F)cn1` [Example 85] are 201 to 203 °C (dec.), 85.4 µg/mL (≈ 194 µM) and 1 µg/mL (≈ 2.27 µM).
In the case of `COc1cc(OCc2ccc(Br)cc2F)ccc1-c1c[nH]c(-c2ccc(C)nc2)n1` [Example 86], the melting point is 218 to 220 °C (dec.). For the same compound, the solubility at 24 h in series [1] (setting [2]) was 73.5 µg/mL (≈ 157 µM). In addition, the solubility at 24 h in series [1] (setting [3]) was under 0.3 µg/mL.
On the same counts, the results for `COc1cc(-c2c[nH]c(-c3ccccn3)n2)ccc1OCc1ccc(C(F)(F)F)cn1` [Example 87] are 217 to 220 °C, 39.4 µg/mL (≈ 92.4 µM) and 0.7 µg/mL (≈ 1.64 µM).
For `COc1cc(OCc2ccc(C(F)(F)F)cn2)ccc1-c1c[nH]c(-c2ccccn2)n1` [Example 88], the melting point fell in the range of 214 to 216 °C. Moreover, the solubility at 24 h in series [1] (setting [2]) was 54.1 µg/mL (≈ 127 µM). Besides, the solubility at 24 h in series [1] (setting [3]) worked out at 0.5 µg/mL (≈ 1.17 µM).
On the same counts, the results for `COc1cc(OCc2ccc(Br)cc2F)ccc1-c1c[nH]c(-c2ccccn2)n1` [Example 91] are 143 to 146 °C, 42.8 µg/mL (≈ 94.2 µM) and 0.6 µg/mL (≈ 1.32 µM).
The like results for `COc1cc(-c2c[nH]c(-c3ccc(Cl)nc3)n2)ccc1OCc1ccc(C(F)(F)F)cn1` [Example 93] were, in that order, over 280 °C, 10 µg/mL (≈ 21.7 µM) and 0.9 µg/mL (≈ 1.95 µM).
The like results for `COc1cc(OCc2ccc(C(F)(F)F)cn2)ccc1-c1c[nH]c(-c2ccc(Cl)nc2)n1` [Example 94] were, in that order, 215 to 217 °C, 8.7 µg/mL (≈ 18.9 µM) and 0.9 µg/mL (≈ 1.95 µM).
`COc1cc(-c2c[nH]c(-c3ccc(C(F)(F)F)nc3)n2)ccc1OCc1ccc(C(F)(F)F)cn1` [Example 97] registered a melting point of 201 to 203 °C. Besides, the solubility at 24 h in series [1] (setting [2]) is 15.2 µg/mL (≈ 30.7 µM). Besides, the solubility at 24 h in series [1] (setting [3]) worked out at 2.2 µg/mL (≈ 4.45 µM).
The like results for `COc1cc(OCc2ccc(Br)cc2F)ccc1-c1c[nH]c(-c2ccncc2)n1` [Example 98] were, in that order, 226 to 230 °C, 37.1 µg/mL (≈ 81.7 µM) and 1.3 µg/mL (≈ 2.86 µM).
For `COc1cc(OCc2ncc(C(F)(F)F)cc2F)ccc1-c1cnc(-c2ccc(Cl)nc2)[nH]1` [Example 102], the melting point is 164 to 186 °C. For the same compound, the solubility at 24 h in series [1] (setting [2]) was 92.5 µg/mL (≈ 193 µM). In addition, the solubility at 24 h in series [1] (setting [3]) came to 8.9 µg/mL (≈ 18.6 µM).
The like results for `COc1cc(OCc2ncc(Br)cc2F)ccc1-c1cnc(-c2ccc(Cl)nc2)[nH]1` [Example 105] were, in that order, 219 to 225 °C, 27.6 µg/mL (≈ 56.4 µM) and under 0.3 µg/mL.
On the same counts, the results for `COc1cc(OCc2cc(C(F)(F)F)ccn2)ccc1-c1cnc(-c2ccc(F)nc2)[nH]1` [Example 114] are 183 to 186 °C, 11.3 µg/mL (≈ 25.4 µM) and 2.7 µg/mL (≈ 6.08 µM).
The like results for `COc1cc(OCc2ccc(C(F)(F)F)cc2)ccc1-c1cnc(-c2ccc(F)nc2)[nH]1` [Example 115] were, in that order, 125 to 135 °C, 15.5 µg/mL (≈ 35 µM) and 2 µg/mL (≈ 4.51 µM).
